The record followed here is PMC3703859 (Neuropharmacology, 2010).

Data set [1] has as its target T1, human DAT V152A (Homo sapiens, UniProt Q01959, V152A). Description: [^3H]CFT binding on intact transfected COS7 cells. The conditions noted are these: for reduction in apparent affinity in [^3H]CFT competition binding versus wild type: V152A vs WT.
Data set [2] concerns the target T2, human DAT V152I (Homo sapiens, UniProt Q01959, V152I). Description: [^3H]CFT binding on intact transfected COS7 cells. The conditions noted are these: for reduction in apparent affinity in [^3H]CFT competition binding versus wild type: V152I vs WT.
Data set [3] deals with T1, human DAT V152A. The data set can be described thus: [^3H]dopamine uptake in transfected COS7 cells. The class given is cell-based. The conditions noted are these: for decrease in potency in inhibition of [^3H]dopamine uptake versus wild type: V152A vs WT.
Data set [4] has as its target T2, human DAT V152I. The data set can be described thus: [^3H]dopamine uptake in transfected COS7 cells. In kind it is cell-based. The conditions noted are these: for decrease in potency in inhibition of [^3H]dopamine uptake versus wild type: V152I vs WT.
For another data set, the target named is human DAT N157A (Homo sapiens, UniProt Q01959, N157A). Description: [^3H]dopamine uptake in transfected COS7 cells. In kind it is cell-based.
In another data set the target is human DAT N157C (Homo sapiens, UniProt Q01959, N157C). Description: [^3H]dopamine uptake in transfected COS7 cells. The class given is cell-based.
In data set [5] the target is T3, wild type human DAT (Homo sapiens, UniProt Q01959). The data set can be described thus: [^3H]dopamine uptake in transfected COS7 cells. The class given is cell-based. The conditions noted are these: WT DAT.
The target of data set [6] is T4, human DAT A479V/A480V (Homo sapiens, UniProt Q01959, A479V/A480V). Description: [^3H]dopamine uptake in transfected COS7 cells. In kind it is cell-based.
The target of another data set is human DAT S422A (Homo sapiens, UniProt Q01959, S422A). Description: [^3H]dopamine uptake in transfected COS7 cells. The class given is cell-based.
In data set [7] the target is T3, wild type human DAT. Description: [^3H]CFT binding on intact transfected COS7 cells. The conditions noted are these: WT DAT.
Data set [8] deals with T4, human DAT A479V/A480V. The data set can be described thus: [^3H]CFT binding on intact transfected COS7 cells.
Substrate in data set [9]: NCCc1ccc(O)c(O)c1
Description: cells, lysate or membranes. The conditions noted are these: COS7 cells, 5 min uptake at room temperature, pH 7.4.

Where a chain is given by its changes, count along the chain named. Numbers in names are those of the source.

T1 sequence (Q01959 whole entry V152A): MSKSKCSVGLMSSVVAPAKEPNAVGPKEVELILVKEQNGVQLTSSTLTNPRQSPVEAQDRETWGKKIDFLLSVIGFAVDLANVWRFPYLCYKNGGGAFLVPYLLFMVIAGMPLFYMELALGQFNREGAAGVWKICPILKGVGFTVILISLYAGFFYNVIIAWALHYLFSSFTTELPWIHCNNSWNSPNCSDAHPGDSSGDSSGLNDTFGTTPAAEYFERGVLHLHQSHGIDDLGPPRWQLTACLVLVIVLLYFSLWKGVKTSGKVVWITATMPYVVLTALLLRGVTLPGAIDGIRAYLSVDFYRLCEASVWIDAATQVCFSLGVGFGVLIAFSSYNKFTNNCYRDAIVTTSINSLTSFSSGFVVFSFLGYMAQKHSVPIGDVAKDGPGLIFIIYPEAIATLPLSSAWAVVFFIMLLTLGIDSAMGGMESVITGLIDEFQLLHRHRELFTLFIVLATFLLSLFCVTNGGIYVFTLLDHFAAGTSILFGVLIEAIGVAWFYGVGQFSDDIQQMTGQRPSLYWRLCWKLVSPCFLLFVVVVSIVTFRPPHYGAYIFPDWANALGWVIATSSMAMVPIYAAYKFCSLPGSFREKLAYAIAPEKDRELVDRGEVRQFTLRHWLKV
T2 sequence (Q01959 whole entry V152I): as the sequence (Q01959 whole entry V152A) above, with A152I counted along it
Sequence of human DAT S422A (Q01959 whole entry S422A): as the sequence (Q01959 whole entry V152A) above, with A152V, S422A counted along it
T4 sequence (Q01959 whole entry A479V/A480V): as the sequence (Q01959 whole entry V152A) above, with A152V, A479V, A480V counted along it
Sequence of human DAT N157C (Q01959 whole entry N157C): as the sequence (Q01959 whole entry V152A) above, with A152V, N157C counted along it
Sequence of human DAT N157A (Q01959 whole entry N157A): as the sequence (Q01959 whole entry V152A) above, with A152V, N157A counted along it

For `CCCCN1[C@@H]2CC[C@H]1CC(OC(c1ccc(F)cc1)c1ccc(F)cc1)C2` (stereo partly drawn) [JHW007], the “reduction in apparent affinity in [^3H]CFT competition binding versus wild type” value on human DAT V152A [1] and on human DAT V152I [2] was 10–20 fold throughout. In addition, the “decrease in potency in inhibition of [^3H]dopamine uptake versus wild type” value is listed as ~ 2 fold on human DAT V152A [3] and ~ 6 fold at human DAT V152I [4].

In the case of `CN1[C@@H]2CC[C@H]1C[C@@H](OC(c1ccccc1)c1ccccc1)C2` [BZT, benztropine], the “reduction in apparent affinity in [^3H]CFT competition binding versus wild type” value on human DAT V152A [1] and on human DAT V152I [2] was ~ 15 fold throughout. Moreover, the “decrease in potency in inhibition of [^3H]dopamine uptake versus wild type” value on human DAT V152A [3] is given as ~ 3 fold; at human DAT V152I [4], “no change”.

For the molecule `NCCc1ccc(O)c(O)c1` [[^3H]Dopamine, 3,4-[Ring-2,5,6-^3H]-dihydroxyphenylethylamine], the “Vmax ± S.E. of [^3H]dopamine uptake” value on human DAT N157A is 598 ± 179 fmol/min/10^5 cells; at human DAT N157C, 1768 ± 159 fmol/min/10^5 cells; at wild type human DAT [5] it was 5275 ± 555 fmol/min/10^5 cells; on human DAT V152A [3] (V152A, COS7 cells), 614 ± 167 fmol/min/10^5 cells; at human DAT A479V/A480V [6] it was 2231 ± 157 fmol/min/10^5 cells; at human DAT S422A (S422A, COS7 cells), 320 ± 40 fmol/min/10^5 cells. Besides, the “Vmax ± S.E. of [^3H]dopamine uptake” value at human DAT V152I [4] (V152I, COS7 cells) was 242 ± 37 fmol/min/10^5 cells. Besides, the “increase in Km value for [^3H]dopamine uptake versus wild type” value at human DAT S422A (S422A vs WT) is ~ 4 fold.

For `COC(=O)[C@H]1[C@@H](c2ccc(F)cc2)C[C@@H]2CC[C@H]1N2C` [CFT, (−)-2β-carbomethoxy-3β-(4-fluorophenyl)tropane], the “Bmax ± S.E. of [^3H]CFT binding” value stood at 386 ± 89 fmol/10^5 cells at wild type human DAT [7]; 310 ± 44 fmol/10^5 cells at human DAT A479V/A480V [8]; 380 ± 99 fmol/10^5 cells on human DAT V152A [1] (V152A, intact COS7 cells); 215 ± 58 fmol/10^5 cells at human DAT V152I [2] (V152I, intact COS7 cells).

B1: wild type human DAT (Homo sapiens) (protein)
chain: MSKSKCSVGLMSSVVAPAKEPNAVGPKEVELILVKEQNGVQLTSSTLTNPRQSPVEAQDRETWGKKIDFLLSVIGFAVDLANVWRFPYLCYKNGGGAFLVPYLLFMVIAGMPLFYMELALGQFNREGAAGVWKICPILKGVGFTVILISLYVGFFYNVIIAWALHYLFSSFTTELPWIHCNNSWNSPNCSDAHPGDSSGDSSGLNDTFGTTPAAEYFERGVLHLHQSHGIDDLGPPRWQLTACLVLVIVLLYFSLWKGVKTSGKVVWITATMPYVVLTALLLRGVTLPGAIDGIRAYLSVDFYRLCEASVWIDAATQVCFSLGVGFGVLIAFSSYNKFTNNCYRDAIVTTSINSLTSFSSGFVVFSFLGYMAQKHSVPIGDVAKDGPGLIFIIYPEAIATLPLSSAWAVVFFIMLLTLGIDSAMGGMESVITGLIDEFQLLHRHRELFTLFIVLATFLLSLFCVTNGGIYVFTLLDHFAAGTSILFGVLIEAIGVAWFYGVGQFSDDIQQMTGQRPSLYWRLCWKLVSPCFLLFVVVVSIVTFRPPHYGAYIFPDWANALGWVIATSSMAMVPIYAAYKFCSLPGSFREKLAYAIAPEKDRELVDRGEVRQFTLRHWLKV
For the molecule B1, in data set [9] (other: WT DAT), the Km is 986 [861–1130] nM.

B2: human DAT N157C (Homo sapiens; N157C) (protein)
chain: B1 chain with N157C
Take B2: the Km in data set [9] (other: N157C) was 2710 [2170–3380] nM.

B3: human DAT S422A (Homo sapiens; S422A) (protein)
chain: B1 chain with S422A
With B3, in data set [9] (other: S422A), the Km was 3950 [3730–4190] nM.

B4: human DAT V152I (Homo sapiens; V152I) (protein)
chain: B1 chain with V152I
As to B4, the Km in data set [9] (other: V152I) was 4370 [3180–6010] nM.

B5: human DAT V152A (Homo sapiens; V152A) (protein)
chain: B1 chain with V152A
B5: the Km in data set [9] (other: V152A) was 3090 [2310–4130] nM.

B6: human DAT A479V/A480V (Homo sapiens; A479V/A480V) (protein)
chain: B1 chain with A479V, A480V
For B6, the Km in data set [9] (other: A479V/A480V) is 1620 [1350–1940] nM.

B7: human DAT N157A (Homo sapiens; N157A) (protein)
chain: B1 chain with N157A
Regarding B7, in [9] (other: N157A), the Km is 3240 [2720–3870] nM.
